One assay has as its system NF-κB. Briefly: NF-κB reporter assay in DLD-1^HIF-kd cells in hypoxia. It is filed as cell-based. Here is the method:
Cell lines. DLD-1 and Caco2 cells (ATCC) were stably transfected with HIF-1α siRNA constructs (pSuper.retro, OligoEngine), pSR.HIF-1α1470 or pSR.HIF-1α2192^10. […] Transient transfections were performed using Lipofectamine 2000 (Invitrogen).
(§1) Transfections and Reporter Assays. 0.1-0.2 μg reporter constructs were co-transfected with 2 ng of pRL-CMV (Promega) and luciferase activity was measured with the Dual Luciferase Reporter Assay System (Promega). pRL-null, a promoter-less Renilla construct, was used when cells were co-transfected with a K-ras expression vector^29. The relative luciferase activity was calculated as Firefly/Renilla luciferase activity. The level of ‘hypoxic induction’ was the ratio between the relative luciferase activity in hypoxia to that in normoxia.

In a further assay the test system is IL-8. Briefly: IL-8 mRNA (qRT-PCR) in parental DLD-1 cells given t-butyl hydroperoxide. It is filed as cell-based. Here is the method: Real-time PCR assay. RNA was extracted using the RNeasy kit (Qiagen) and quantitative reverse-transcription PCR was performed using the SuperScript III platinum Two-Step qRT-PCR Kit (Invitrogen). Primer sequences for VEGF, IL-8, and 18S RNA are available upon request. A fluorogenic SYBR Green and MJ research detection system were used for real time quantification.
Hydrogen peroxide studies. Measurement of H2O2 was performed using the Amplex Red Hydrogen peroxide Assay Kit and the CM-H2DCFDA reagent (both Molecular Probe). Cells were exposed to hypoxia for 10 h, and then culture medium was switched to Krebs-Ringer phosphate buffer^30 containing 100 μM Amplex Red reagent and 0.2 U/mL HRP. After additional incubation in hypoxia for 1 h, fluorescence was measured in 96-well plates by Spectra MAX GEMINI XS microplate fluorometer (Molecure Devices). Cells were also incubated with 10 μM CM-H2DCFDA for 30 minutes in RPMI without phenol red. Fluorescence was measured in 96 well plates and values were normalized to cell number. 20 or 40 μM t-butyl hydroperoxide (t-BH, Sigma) was added to the culture media of DLD-1 cells every 30 minutes for 6 hours, and IL-8 mRNA levels were measured by qRT-PCR.

Assay [1] concerns IL8 promoter. Briefly: IL-8 promoter reporter assay in DLD-1^HIF-kd cells in hypoxia. Format: cell-based. On the procedure:
(§2) Cell lines. DLD-1 and Caco2 cells (ATCC) were stably transfected with HIF-1α siRNA constructs (pSuper.retro, OligoEngine), pSR.HIF-1α1470 or pSR.HIF-1α2192^10. […] In a pilot xenograft study, growth, microvascular density, VEGF and IL-8 levels were similar between a pSR.HIF-1α1470 clone and pSR.HIF-1α2192 clone. […] Transient transfections were performed using Lipofectamine 2000 (Invitrogen).
as §1
On the technique in general: Reporter assays use an easily measured gene product as a stand-in for the process of interest.

For assay [2], the system named is IL8 promoter. Briefly: IL-8 promoter reporter assay in Caco2 cells with KRAS^V12 and hypoxia. Format: cell-based. On the procedure: as §2, §1
In a further assay the test system is VEGF. To be noted: plus chemotherapy vs chemotherapy alone; cited from earlier work.
Chain of VEGF (P15692 207-311 limits assumed): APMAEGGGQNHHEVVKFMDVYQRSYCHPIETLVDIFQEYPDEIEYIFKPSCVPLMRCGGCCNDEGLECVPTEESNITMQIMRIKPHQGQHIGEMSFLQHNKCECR

Turning to `C=C(C)[C@H]1Cc2c(ccc3c2O[C@@H]2COc4cc(OC)c(OC)cc4[C@@H]2C3=O)O1` [rotenone], in the assay on NF-κB, the “induction of NF-κB promoter activity by hypoxia” value was “strongly blocked”.
Consider `CC(C)(C)OO` [t-butyl hydroperoxide], for which the “production of IL-8” value in the assay on IL-8 (exogenous administration) is “stimulated”.
For `Cc1ccc(S(=O)(=O)/C=C/C#N)cc1` [BAY 11-7082], the “induction of IL-8 by t-butyl hydroperoxide” value in the assay with IL-8 (5 μM BAY 11-7082) was “inhibited”. Also, in the assay on IL8 promoter [1], the “hypoxic induction of the IL8 promoter” value is on record as “significantly down-regulated”. In the assay on IL8 promoter [2], the “induction of the IL8 promoter by hypoxia and KRAS^V12” value is reported as “blocked”.
Take `c1ccc2c(c1)[I+]c1ccccc1-2` [diphenylene iodonium]: in the assay on NF-κB, the “induction of NF-κB promoter activity by hypoxia” value is on record as “strongly blocked”.
With “Avastin: A monoclonal antibody to VEGF; recombinant humanized antibody (Genentech)”, in the assay with VEGF, the survival entry is “greater” and the time to progression result is given as “highly significant longer”.

These data come from patent US20080306002A1, “Combination Therapy for Preventing Angiogenesis” (The General Hospital Corporation, priority 2005, published 2008).
